From patent US11478469B2, “Combination product of BCL-2 inhibitor and MDM2 inhibitor and use thereof in the prevention and/or treatment of diseases” (ASCENTAGE PHARMA (SUZHOU) CO., LTD., priority 2018, dated 2022)

Columns and labels:
[1] = system: human RS4;11 (ALL) mouse xenograft tumor; test: Human RS4;11 ALL mouse xenograft tumor model; assay type: in vivo; details: for antitumor effect in words: 21 days of administration, Compound 6 50 mg/kg qd alone (12.5 or 50 mg/kg in combination), APG-115 50 mg/kg q2d; for CR (tumor complete regression), mice per group, day 21 after administration / PR (tumor partial regression), mice per group, day 21 after administration / RTV on day 21 after administration (mean ± standard error) / T/C (%) on day 21 after administration / Tumor remission rate % on day 21 after administration: Compound 6 50 mg/kg qd and/or APG-115 50 mg/kg q2d; for Tumor remission rate % on day 21 after administration: remission including CR, PR, and SD
Excerpt: A subcutaneous xenograft tumor model of human tumor immunodeficient mice was established by cell inoculation (see: Gould S E et al. Translational value of mouse models in oncology drug development. Nature medicine. 2015 21, 431-439; and, Souers A J et al. ABT-199, a potent and selective BCL-2 inhibitor, achieves antitumor activity while sparing platelets. Nature medicine. 2012 19.202-208): tumor cells in logarithmic growth phase were collected, counted and resuspended in 1×PBS, and the cell suspension concentration was adjusted to 2.5-5×10^7/mL. Using a 1 mL syringe ([…]), the tumor cells were inoculated subcutaneously in the right side of immunodeficient mice, 5-10×106/0.2 mL/mouse (experimental animals were purchased from Beijing Vital River Laboratory Animal Technology Co., Ltd. SCXK (Beijing) 2016-0006). All animal experiments were strictly in accordance with the laboratory animal use and management practices of GenePharma Co., Ltd. and Ascentage Pharma Group Co., Ltd. The calculation of relevant parameters referred to the Chinese CFDA “Guidelines for Non-Clinical Research Techniques of Cytotoxic Antitumor Drugs”.
Animal body weight and tumor size were measured twice a week during the experiment. The conditions and death of the animals were observed every day. Routine monitoring included the effects of tumor growth and treatment on normal animal behaviors, including activity, feeding and drinking situations, weight gain or loss, eyes, coat and other abnormalities in the experimental animals. The deaths and clinical symptoms observed during the experiment were recorded in the raw data. The entire operations of administration, measurement of mouse body weight and tumor volume were performed in a clean bench. Plasma and tumor tissues were collected, weighed and photographed after the end of the last administration according to the experimental protocol. Plasma and tumor samples were frozen and stored at −80° C.
Tumor volume (TV) was calculated as: TV=a×b2/2, in which a and b represented the length and width of the tumor as measured, respectively. The relative tumor volume (RTV) was calculated as: RTV=Vt/V1, in which V1 was the tumor volume at the time of grouping and administration, and Vt was the tumor volume measured on a day after administration. The evaluation index of anti-tumor activity was the relative tumor proliferation rate T/C (%), which was calculated as: relative tumor proliferation rate T/C (%)=(TRTV/CRTV)×100%, in which TRTV was the RTV of the treatment group, CRTV was the RTV of the vehicle control group; tumor remission rate (%) was calculated as: (the number of SD (stable disease), PR (tumor partial regression) and CR (tumor complete regression) in the tumor-bearing mice after treatment)/the total number of mice in the group×100%. Change of body weight %=(measured body weight−body weight at the time of grouping)/body weight at the time of grouping×100%.
The synergistic analysis was performed by the following formula (Gould S E et al. Translational value of mouse models in oncology drug development. Nature medicine. 2015 21, 431-439): synergy factor=((A/C)×(B/C))/(AB/C); A=RTV value of the group administered with A only; B═RTV value of the group administered with B only; C=RTV value of the vehicle control group; AB=RTV value of the group administered with A and B in combination (Clarke R. Issues in experimental design and endpoint analysis in the study of experimental cytotoxic agents in vivo in breast cancer and other models [J]. Breast Cancer Research & Treatment, 1997, 46(2-3): 255-278).
(1) The experimental method was as described in Section (2) of Example 1. RS4;11 carried wild-type p53 and was an ideal model for evaluating the anti-tumor effect of MDM2 inhibitors. […]

[2] = system: KMS-26 (multiple myeloma (MM)); test: CellTiter-Glo (CTG) cell proliferation assay, KMS-26; assay type: cell-based; details: KMS-26, single agent alone, 24 hours; read-out: IC50 for inhibition of proliferation
Description: (§1) Anti-proliferative effects were tested by CellTiter-Glo® (CTG) assay. Cells were seeded in 96-well plates and treated with different concentrations of test substance for 24 hours. By using 9 different concentrations of Compound 6 (which were selected in a 3× gradient between 10-3 and 101 μM, i.e., 0.0016, 0.0045, 0.014, 0.041, 0.12, 0.36, 1.1, 3.2, 10 μM) in combination with 3 different concentrations of MDM2 inhibitor (e.g., APG-115) in action for 24 hours, the effects of Compound 6 in combination with the drug were tested. Each test dose was tested with 3 replicate wells.
(§2) Usually, 9 series of doses of the test substance were selected, and added to 96-well plates, 5 μl/well. For the combination experiment, the final volume of the two test substances was 5 μl/well. […] After mixing on a shaker for 2 minutes, leaving at room temperature for 10 minutes, the fluorescence value was read by using a Biotek synergy HIMF plate reader. Using the average fluorescence value of 3 replicate wells, the percentage of cell viability was calculated by the following formula: Cell viability (%)=(fluorescence value of test well—fluorescence value of negative control well)/(fluorescence value of vehicle control-fluorescence value of negative control group)×100%
(§3) The IC50 was calculated using the nonlinear regression data analysis method of Graphpad Prism 6.0 software ([…]). […]

[3] = system: KMS-11 (multiple myeloma (MM)); test: CellTiter-Glo (CTG) cell proliferation assay, KMS-11; assay type: cell-based; details: Homo sapiens; KMS-11, single agent alone, 24 hours; read-out: IC50 for inhibition of proliferation
Description: as §1, §2, §3

CCN1[C@@H](C(=O)NC23CCC(C(=O)O)(CC2)CC3)[C@H](c2cccc(Cl)c2F)[C@]2(C(=O)Nc3cc(Cl)ccc32)C12CCCCC2 [APG-115]
antitumor effect in words [1]: no tumor growth inhibition effect | CR (tumor complete regression), mice per group, day 21 after administration [1]: 0/5 | PR (tumor partial regression), mice per group, day 21 after administration [1]: 0/5 | RTV on day 21 after administration (mean ± standard error) [1]: 11.1 ± 0.9 | T/C (%) on day 21 after administration [1]: 106% | Tumor remission rate % on day 21 after administration [1]: 0%

O=C(NS(=O)(=O)c1ccc(NC[C@H]2COCCO2)c([N+](=O)[O-])c1)c1ccc(N2CCN(CC3=C(c4ccc(Cl)cc4)CC4(CCC4)CC3)CC2)cc1Oc1cnc2[nH]ccc2c1 [Compound 6, (S)-N-((4-(((1,4-dioxan-2-yl)methyl)amino)-3-nitrophe-nyl)sulfonyl)-2-((1H-pyrrolo[2,3-b]pyridin-5-yl)oxy)-4-(4-((6-(4-chlorophenyl)spiro[3.5]non-6-en-7-yl)meth-yl)piperazin-1-yl)benzamide]
IC50 [2]: 14.7 µM | antitumor effect in words [1]: excellent antitumor effect | CR (tumor complete regression), mice per group, day 21 after administration [1]: 0/5 | PR (tumor partial regression), mice per group, day 21 after administration [1]: 1/5 | RTV on day 21 after administration (mean ± standard error) [1]: 1.8 ± 0.4 | T/C (%) on day 21 after administration [1]: 17% | Tumor remission rate % on day 21 after administration [1]: 20% | IC50 [3]: 10.8 µM
